“And” between values parts separate entries of the source, which are not always exact repeats. Equal entries are not always repeated. Structures can show the parent of a compound that is named as a salt. Marks after values point to notes of the source that are not given here.
How the values were obtained:
NCI-H520 cell xenograft = assay: NCI-H520 xenograft nude mice, 35 days oral: gefitinib 120 mg/kg single, bojungikgi-tang 400 mg/kg single, or co-administered within 5 minutes; type: in vivo, Balb/c Slc nu/nu mice; settings: co-adm BJIKT 100/200/400 mg/kg in order
Procedure: A total of 73 nude mice were purchased, and NCI-H520 cells were xenografted into a subcutaneous region of a right hip each of 67 mice. 14 days after the grafting, the xenografted mice having a tumor volume of 100 mm^3 or more were selected, and divided into seven groups of 6 mice each to be used in the experiment as listed in Table 16. Separately, 6 mice were prepared as the vehicle control.
Then, the NCI-H520 cells were cultured to a density of 1.0×10^8 cells/ml to prepare a tumor cell suspension, and 0.2 mL (2×10^7 cells/head) of the NCI-H520 tumor cell suspension was injected into subcutaneous regions of right back buttocks of the mice to form a solid tumor mass.

in vivo [1] = settings: male, SD, rat, plasma, po, 50 mg/kg
in vivo [2] = settings: male, SD, rat, plasma, po, 50 mg/kg; for AUC(0-inf): AUC0-inf of gefitinib; for AUC(0-t): AUC0-t of gefitinib; for Cmax: Cmax of gefitinib; for MRT inf: MRTinf of gefitinib; for half-life: t1/2 of gefitinib
MCF-7 cell xenograft = assay: MCF-7 xenograft nude mice, 35 days oral: tamoxifen 20 mg/kg single, JEKHT 500 mg/kg single, or co-administered within 5 minutes; tumor, immune and cachexia readouts; type: in vivo, Balb/c Slc nu/nu mice
Excerpt: In Example 3, as laboratory animals, Balb/c Slc nu/nu mice (5-week-old females, SLC, Shizuoka, Japan) were used. Seventy three nude mice were purchased, and sixty seven xenografted mice having a tumor volume of 50 mm^3 or more 14 days after MCF-7 cells were xenografted into subcutaneous parts of a right hip of each mouse were selected, and divided into groups of seven mice each.
The xenografted MCF-7 cells were maintained by sub-culturing the MCF-7 cells (American Type Culture Collection Center, VA, USA) using 10% fetal bovine serum (FBS)-added RPMI 1640 (Gibco, Grand Island, N.Y., USA) media in a 5% C02 incubator at 37° C., and a solid tumor mass was formed by preparing a tumor cell suspension to have a cell concentration of 1.0×10^8 cell/ml, and grafting 0.2 ml (2×10^7 cell/mouse) of the MCF-7 tumor cell suspension on a subcutaneous part of a right hip of each mouse.

in vivo [3] = settings: male, SD, rat, plasma
in vivo [4] = settings: male, SD, rat, plasma; for Cmax / MRT inf / Tmax / half-life: oral; for Cmax: Blood Cmax of tamoxifen; for MRT inf: Blood MRTinf of tamoxifen; for Tmax: Blood Tmax of tamoxifen; for half-life: Blood t1/2 of tamoxifen; for AUC(0-inf) / AUC(0-t): po, 50 mg/kg; for AUC(0-inf): Blood tamoxifen AUC0-inf; for AUC(0-t): Blood tamoxifen AUC0-t
HepG2 cells [5] = assay: HepG2 cell viability, MTT method (BJIKT, sorafenib); type: cell-based; settings: Homo sapiens
HepG2 cells [6] = assay: HepG2 cell viability, MTT method (YMJHT, sorafenib); type: cell-based; settings: Homo sapiens
[7] = mouse, in vivo
[8] = sorafenib 100 mg/kg single
[9] = co-adm JEKHT 125/250/500 mg/kg in order
[10] = co-adm JEKHT dose given in table
[11] = submandibular lymph node, JEKHT dose = table row
[12] = tumor mass, JEKHT dose = table row

COc1cc2ncnc(Nc3ccc(F)c(Cl)c3)c2cc1OCCCN1CCOCC1 [Gefitinib]
Absolute periovarian fat pad weight, change vs TB control (NCI-H520 cell xenograft): −3.06% | Absolute spleen weight, change vs TB control (NCI-H520 cell xenograft): 14.01% | Absolute submandibular lymph node weight, change vs TB control (NCI-H520 cell xenograft): 50.00% | Absolute tumor weight change (NCI-H520 cell xenograft): −39.14% | Blood IFN-γ content, change vs TB control (NCI-H520 cell xenograft): 6.77% | Blood IL-6 content, change vs TB control (NCI-H520 cell xenograft): −12.33% | Body weight gain, change vs tumor-bearing control (NCI-H520 cell xenograft): 68.23% | COX-2 immunoreactive cells in tumor tissue, change vs TB control (NCI-H520 cell xenograft): −42.48% | Caspase-3 immunoreactive cells in tumor tissue, change vs TB control (NCI-H520 cell xenograft): 168.67% | Diameter of splenic white pulp, change vs TB control (NCI-H520 cell xenograft): 6.51% | Follicles in submandibular lymph node cortex, change vs TB control (NCI-H520 cell xenograft): 15.00% | Mean white adipocyte diameter, change vs TB control (NCI-H520 cell xenograft): −7.01% | Number of splenic white pulps, change vs TB control (NCI-H520 cell xenograft): 22.22% | PARP immunoreactive cells in tumor tissue, change vs TB control (NCI-H520 cell xenograft): 125.47% | Percentage of apoptotic cells in tumor tissue, change vs TB control (NCI-H520 cell xenograft): 131.78% | Percentage of tumor cells in tumor tissue, change vs TB control (NCI-H520 cell xenograft): −36.78% | Periovarian fat pad thickness, change vs TB control (NCI-H520 cell xenograft): 2.11% | Spleen IL-1β content, change vs TB control (NCI-H520 cell xenograft): 8.36% | Spleen IL-10 content, change vs TB control (NCI-H520 cell xenograft): 5.16% | Spleen TNF-α content, change vs TB control (NCI-H520 cell xenograft): 6.73% | Splenic NK cell activity, change vs TB control (NCI-H520 cell xenograft): 4.93% | Submandibular lymph node cortex thickness, change vs TB control (NCI-H520 cell xenograft): 16.19% | TNF-α immunoreactive cells in tumor tissue, change vs TB control (NCI-H520 cell xenograft): 12.63% | Total spleen thickness, change vs TB control (NCI-H520 cell xenograft): −6.99% | Total submandibular lymph node thickness, change vs TB control (NCI-H520 cell xenograft): 7.42% | Tumor volume variation, change vs tumor-bearing control (NCI-H520 cell xenograft): −55.42% | iNOS immunoreactive cells in tumor tissue, change vs TB control (NCI-H520 cell xenograft): 9.02% | AUC(0-inf) (in vivo [1]): 16.4 ± 9.31 µg·h/mL | AUC(0-t) (in vivo [1]): 14.6 ± 9.45 µg·h/mL | Cmax (in vivo [1]): 2.16 ± 0.76 µg/mL | half-life (in vivo [1]): 2.59 ± 0.76 h | AUC(0-inf) (in vivo [2]; 9th administration): 16.9 ± 4.14 µg·h/mL | AUC(0-inf) (in vivo [2]; first gefitinib administration): 20.2 ± 4.61 µg·h/mL | AUC(0-t) (in vivo [2]; 9th administration): 13.5 ± 2.78 µg·h/mL | AUC(0-t) (in vivo [2]; first gefitinib administration): 15.3 ± 2.24 µg·h/mL | Cmax (in vivo [2]; 9th administration): 3.12 ± 0.77 µg/mL | Cmax (in vivo [2]; first gefitinib administration): 3.01 ± 0.48 µg/mL | MRT inf (in vivo [2]; 9th administration): 5.71 ± 1.04 h | MRT inf (in vivo [2]; first gefitinib administration): 5.94 ± 1.36 h | half-life (in vivo [2]; 9th administration): 2.38 ± 0.88 h | half-life (in vivo [2]; first gefitinib administration): 2.82 ± 0.92 h

CC/C(=C(\c1ccccc1)c1ccc(OCCN(C)C)cc1)c1ccccc1 [Tamoxifen, Tamoxifen citrate]
Periovarian fat pad total thickness (MCF-7 cell xenograft; JEKHT dose = table row): 0.28 ± 0.10^a mm/central regions | Spleen total thickness (MCF-7 cell xenograft; JEKHT dose = table row): 1.15 ± 0.13^a mm/central regions | Spleen white pulp diameters (MCF-7 cell xenograft; JEKHT dose = table row): 298.11 ± 61.88^a μm/white pulp | Spleen white pulp numbers (MCF-7 cell xenograft; JEKHT dose = table row): 4.14 ± 1.07^a /mm^2 | Submandibular lymph node total thickness (MCF-7 cell xenograft; JEKHT dose = table row): 487.38 ± 83.96^a μm/central regions | Blood IFN-γ content, change vs tumor-bearing control (MCF-7 cell xenograft; [9]): −14.77% | Blood IL-6 content, change vs tumor-bearing control (MCF-7 cell xenograft; [9]): 21.68% | Body weight gain, change vs tumor-bearing control (MCF-7 cell xenograft; [9]): −11162.72% | Peritoneal NK cell activity, change vs tumor-bearing control (MCF-7 cell xenograft; [9]): −26.39% | Splenic IL-1β content, change vs tumor-bearing control (MCF-7 cell xenograft; [9]): −10.82% | Splenic IL-10 content, change vs tumor-bearing control (MCF-7 cell xenograft; [9]): −33.33% | Splenic NK cell activity, change vs tumor-bearing control (MCF-7 cell xenograft; [9]): −12.73% | Splenic TNF-α content, change vs tumor-bearing control (MCF-7 cell xenograft; [9]): −23.94% | Tumor volume variation, change vs tumor-bearing control (MCF-7 cell xenograft; [9]): −66.73% | Periovarian fat pad absolute weight (MCF-7 cell xenograft; [10]): 0.009 ± 0.003 g | Spleen absolute weight (MCF-7 cell xenograft; [10]): 0.049 ± 0.009 g | Submandibular lymph node absolute weight (MCF-7 cell xenograft; [10]): 0.002 ± 0.001 g | Tumor mass absolute weight (MCF-7 cell xenograft; [10]): 0.047 ± 0.010 g | Tumor volume Changes [B − A] (MCF-7 cell xenograft; [10]): 125.92 ± 40.49^a mm^3 | Tumor volume, Sacrifice [B] (MCF-7 cell xenograft; [10]): 184.85 ± 37.69^a mm^3 | White adipocyte diameters (MCF-7 cell xenograft; periovarian fat pad, JEKHT dose = table row): 19.89 ± 5.09^a μm | Cortex lymphoid cell follicle numbers (MCF-7 cell xenograft; [11]): 4.14 ± 1.68^gj /mm^2 | Cortex thickness (MCF-7 cell xenograft; [11]): 255.43 ± 46.37^a μm/lymph node | TNF-positive cells (MCF-7 cell xenograft; [11]): 6.57 ± 2.51^gj cells/mm^2 of lymph node | Apoptotic cell percentages (MCF-7 cell xenograft; [12]): 27.50 ± 6.62% | Tumor cell volume (MCF-7 cell xenograft; [12]): 51.00 ± 10.37 %/mm^2 | AUC(0-inf) (in vivo [3]; oral): 6.86 ± 2.92 µg·h/mL | AUC(0-t) (in vivo [3]; oral): 5.27 ± 1.79 µg·h/mL | Cmax (in vivo [3]; oral): 0.364 ± 0.122 µg/mL | MRT inf (in vivo [3]; oral): 14.9 ± 6.29 h | Tmax (in vivo [3]; oral): 5.6 ± 2.19 h | half-life (in vivo [3]; po, 50 mg/kg): 9.56 ± 4.16 h | Cmax (in vivo [4]; 8th administration): 0.77 ± 0.22 µg/mL | Cmax (in vivo [4]; first tamoxifen administration): 0.28 ± 0.16 µg/mL | MRT inf (in vivo [4]; 8th administration): 28.5 ± 8.53 h | MRT inf (in vivo [4]; first tamoxifen administration): 18.1 ± 5.71 h | Tmax (in vivo [4]; 8th administration): 3.4 ± 0.89 h | Tmax (in vivo [4]; first tamoxifen administration): 3.6 h | half-life (in vivo [4]; 8th administration): 19.6 ± 5.84 h | half-life (in vivo [4]; first tamoxifen administration): 13.1 ± 5.77 h | AUC(0-inf) (in vivo [4]; 8th administration): 21.5 ± 3.04 µg·h/mL | AUC(0-inf) (in vivo [4]; first tamoxifen administration): 4.86 ± 2.87 µg·h/mL | AUC(0-t) (in vivo [4]; 8th administration): 12.4 ± 2.66 µg·h/mL | AUC(0-t) (in vivo [4]; first tamoxifen administration): 3.23 ± 1.79 µg·h/mL

CNC(=O)c1cc(Oc2ccc(NC(=O)Nc3ccc(Cl)c(C(F)(F)F)c3)cc2)ccn1 [Sorafenib, sorafenib]
IC50 (HepG2 cells [5]): 2.8 µM and 1.3 µg/mL | IC50 (HepG2 cells [6]): 2.81 µM and 1.31 µg/mL | Any abnormal signs ([7]; male, ICR, 28 days): 0/7 (0%) | Normal appearance ([7]; male, ICR, 28 days): 7/7 (100%) | Adrenal G L absolute weight [7]: 0.003 ± 0.002 | BASO (%) [7]: 0.30 ± 0.20% | Body weight gain, Day 0~Day 14 [7]: 6.63 ± 1.62 | Body weight gain, Day 14~Day 27 [7]: 2.11 ± 1.51 | Brain absolute weight [7]: 0.471 ± 0.022 | Epididymis L absolute weight [7]: 0.036 ± 0.004^a | HCT [7]: 41.89 ± 2.13% | HGB [7]: 18.54 ± 0.88 g/dL | Heart absolute weight [7]: 0.155 ± 0.011 | Kidney L absolute weight [7]: 0.285 ± 0.042 | LN L absolute weight [7]: 0.002 ± 0.001^a | LYM (%) [7]: 70.74 ± 6.08^c % | Liver absolute weight [7]: 1.234 ± 0.149 | Lung absolute weight [7]: 0.172 ±0 .010 | MCH [7]: 20.89 ± 0.88 pg | MCV [7]: 47.13 ± 2.47 fL | MONO (%) [7]: 5.26 ± 1.55% | NEU (%) [7]: 17.36 ± 5.16^c % | PLT [7]: 804.86 ± 99.24 K/μL | Pancreas S absolute weight [7]: 0.156 ± 0.022 | RBC [7]: 8.89 ± 0.39 M/μL | RET [7]: 0.51 ± 0.33 ea/1000 | Spleen absolute weight [7]: 0.063 ± 0.007^e | Testis L absolute weight [7]: 0.097 ± 0.006^a | Thymus absolute weight [7]: 0.027 ± 0.004^a | WBC [7]: 1.81 ± 0.53^a K/μL | Deaths, Days of treatment period (Day 0 to 27) [8]: 0 | Deaths, Termination date (28th day of administration) [8]: 0
